The assay deals with human GLP1R (hGLP1R) (Homo sapiens, UniProt P43220). The assay can be described thus: Human GLP1R cAMP agonist assay (GloSensor cAMP Assay). In kind it is cell-based. The conditions noted are these: HEK293-SNAP-hGLP1R-GloSensor cells; for Emax: cAMP activity as percent of GLP1 (7-36) EC100 control; for pEC50: intracellular cAMP, 12 min at rt. As for the experimental part: Compounds of formula (I) according to the invention were tested in the following cellular assays that measure the intracellular cAMP concentration, beta-arrestin recruitment and receptor internalization. The cAMP is generated by the activation of GLP1R. The extent to which the GLP1R is internalized into the cell and away from the plasma membrane following activation is also shown in Table 2. EC50 for each assay is defined as the concentration of the compound that leads to half of the maximum response (after baseline correction). Emax is defined as the maximum response observed for the test compound, normalized to the maximum response observed for the endogenous ligand (GLP1(7-36)) to GLP1R.
Human GLP1R cAMP Agonist Assay
The agonist activity of compounds was determined using the GloSensor™ cAMP Assay (Promega Corp.), which measures changes in the intracellular concentration of cAMP after ligand activation of GPCRs. The assay uses a biosensor encoded by pGloSensor™-22F cAMP plasmid (Promega, cat #E2301) with cAMP binding domains fused to a mutant form of Photinus pyralis luciferase. Binding to cAMP causes conformational changes that promote large increases in light output, which can be measured by a luminescence detector. HEK293-SNAP-hGLP1R-GloSensor cells stably overexpressing the human GLP1 receptor (hGLP1R) and pGloSensor™-22F were seeded in white 384-well poly-D-Lysine coated plates (Greiner Bio One, cat #781945) in CO2-independent media (Gibco cat #18045-088 with 1.0% FBS, 2 mM L-glutamine, penicillin and streptomycin) and incubated overnight at 37° C., 5% CO2 with humidity. The assay was started the following morning by adding an equal volume of CO2-independent media containing 4% v/v dilution of the GloSensor substrate (Promega, cat #E1291) to all wells. The cell plate was incubated at rt for 2 h in the dark. The Biomek 7 (Beckman Coulter) instrument was used for the liquid handling steps. To generate duplicate dose response curves, 3-fold serially diluted compounds were added in to the cell assay plate to a final volume of 60 μL with final concentrations ranging from 30 μM through 0.06 μM in CO2-independent media containing 0.1% BSA, 0.5 mM IBMX and 0.4% DMSO. In the same plate and assay buffer as the tested compounds, were EC100 control wells containing GLP1 (7-36) peptide (Bachem, cat #H-6795) at a final concentration of 2 nM and also EC0 control wells containing no peptide. This plate was incubated at rt in the dark for 12 min after adding the compounds to the cells. Luminescence was then measured with an Envision 2104 Multilabel reader with “TRF Light Unit, 337 nm” (PerkinElmer) using the Ultra-Sensitive protocol setting “384-well US luminescence detector” with the 384-well luminescence aperture, 0.1 seconds per well. cAMP activity was calculated as percent of the GLP1 (7-36) EC100 control wells: [(sample signal−mean EC0 signal)/(mean EC100 of GLP1 (7-36) signal−mean EC0 signal)}*100. Curve fitting for EC50 determinations was performed in the Helios module of the software package DAVID. The 4-parameter logistic model, Hill slope was used: y=Ainf+(A0−Ainf)/(1+(x/AC50)^Hill Slope) where y is the functional response; x is the compound concentration; A0 is the minimum value (at 0 dose); Ainf is the maximum value (at infinite dose); AC50 corresponds to the point of inflection (i.e. the point on the sigmoid shaped curve halfway between A0 and Ainf). The EC50 value was represented by the AC50 value calculated from Helios in μM. Emax is the maximal activity detected within the concentration range, derived from the fitted curve.
327 μL of Opti-MEM medium (Gibco, cat #31985-062) were mixed with 12 μL of FuGENE® HD (Promega, cat #E2311) and incubated at rt for 5 min. Then 8.2 μL (4 μg, 0.485 μg/μL solution) of pSNAP-hGLP1R plasmid (Cisbio, cat #PSNAP-GLP1) encoding human GLP1R (NCBI Reference Sequence: NM_002062.3) fused with Cisbio's SNAP tag was added in to the Fugene HD/Opti-MEM mix, and incubated at rt for 20 min. […]

pEC50: −log10 of the molar value.

Among the data in patent US20250145600A1, “2-((4-((S)-2-(4-CHLORO-2-FLUOROPHENYL)-2-METHYLBENZO[D][1,3]DIOXOL-4-YL)PIPERIDIN-1-YL)METHYL)-1-(((S)-OXETAN-2-YL)METHYL)-1H-IMIDAZOLE DERIVATIVES AS ACTIVATORS OF THE GLP1 RECEPTOR FOR THE TREATMENT OF OBESITY” (Novartis AG, priority 2022, published 2025) are Emax and EC50 values, retold here.

Chain of human GLP1R (hGLP1R) (P43220 24-463): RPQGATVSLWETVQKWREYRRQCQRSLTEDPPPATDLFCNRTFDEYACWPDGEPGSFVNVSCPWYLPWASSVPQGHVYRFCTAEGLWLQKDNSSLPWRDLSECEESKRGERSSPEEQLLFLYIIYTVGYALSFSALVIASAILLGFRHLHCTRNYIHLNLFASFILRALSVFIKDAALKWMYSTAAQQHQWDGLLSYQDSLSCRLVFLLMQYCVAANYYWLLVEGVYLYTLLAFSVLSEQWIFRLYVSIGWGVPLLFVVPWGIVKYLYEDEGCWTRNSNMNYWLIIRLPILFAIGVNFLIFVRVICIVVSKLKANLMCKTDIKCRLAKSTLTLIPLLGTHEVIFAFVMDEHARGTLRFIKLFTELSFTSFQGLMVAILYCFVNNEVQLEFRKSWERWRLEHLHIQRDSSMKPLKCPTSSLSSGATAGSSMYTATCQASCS

In general, Emax refers to the maximal effect, on the per cent scale that the assay sets. For orientation: pEC50 means −log10 of the EC50, conventionally taken in molar units. `Cc1c(-c2nc(C(F)(F)F)c(C(=O)O)o2)nc(CN2CCC(c3cccc4c3O[C@@](C)(c3ccc(Cl)cc3F)O4)CC2)n1C[C@@H]1CCO1` [Compound C-14, 2-(2-((4-((S)-2-(4-chloro-2-fluorophenyl)-2-methylbenzo[d][1,3]dioxol-4-yl)piperidin-1-yl)methyl)-5-methyl-1-(((S)-oxetan-2-yl)methyl)-1H-imidazol-4-yl)-4-(trifluoromethyl)oxazole-5-carboxylic acid] gave an Emax of 104% and a pEC50 of 9.31.
The corresponding values for `C[C@]1(c2ccc(Cl)cc2F)Oc2cccc(C3CCN(Cc4nc(C(F)(F)F)c(-c5nc(C(=O)O)co5)n4C[C@@H]4CCO4)CC3)c2O1` [Compound C-4, 2-(2-((4-((S)-2-(4-chloro-2-fluorophenyl)-2-methylbenzo[d][1,3]dioxol-4-yl)piperidin-1-yl)methyl)-1-(((S)-oxetan-2-yl)methyl)-4-(trifluoromethyl)-1H-imidazol-5-yl)oxazole-4-carboxylic acid] are 120% and 9.53.
On to `Cc1c(-c2ccc(C(=O)O)o2)nc(CN2CCC(c3cccc4c3O[C@@](C)(c3ccc(Cl)cc3F)O4)CC2)n1C[C@@H]1CCO1` [Compound C-24, 5-(2-((4-((S)-2-(4-chloro-2-fluorophenyl)-2-methylbenzo[d][1,3]dioxol-4-yl)piperidin-1-yl)methyl)-5-methyl-1-(((S)-oxetan-2-yl)methyl)-1H-imidazol-4-yl)furan-2-carboxylic acid], for which the Emax is 113% and the pEC50 was 9.99.
`Cc1c(-c2cnc(C(=O)O)o2)nc(CN2CCC(c3cccc4c3O[C@@](C)(c3ccc(Cl)cc3F)O4)CC2)n1C[C@@H]1CCO1` [Compound C-16, 5-(2-((4-((S)-2-(4-chloro-2-fluorophenyl)-2-methylbenzo[d][1,3]dioxol-4-yl)piperidin-1-yl)methyl)-5-methyl-1-(((S)-oxetan-2-yl)methyl)-1H-imidazol-4-yl)oxazole-2-carboxylic acid] had an Emax of 108% and a pEC50 of 9.77.
The corresponding values for `Cc1c(-c2coc(C(=O)O)n2)nc(CN2CCC(c3cccc4c3O[C@@](C)(c3ccc(Cl)cc3F)O4)CC2)n1C[C@@H]1CCO1` [Compound C-18, 4-(2-((4-((S)-2-(4-chloro-2-fluorophenyl)-2-methylbenzo[d][1,3]dioxol-4-yl)piperidin-1-yl)methyl)-5-methyl-1-(((S)-oxetan-2-yl)methyl)-1H-imidazol-4-yl)oxazole-2-carboxylic acid] are 115% and 9.73.
For `Cc1c(-c2cc(C(=O)O)n(C)n2)nc(CN2CCC(c3cccc4c3O[C@@](C)(c3ccc(Cl)cc3F)O4)CC2)n1C[C@@H]1CCO1` [Compound C-17, 3-(2-((4-((S)-2-(4-chloro-2-fluorophenyl)-2-methylbenzo[d][1,3]dioxol-4-yl)piperidin-1-yl)methyl)-5-methyl-1-(((S)-oxetan-2-yl)methyl)-1H-imidazol-4-yl)-1-methyl-1H-pyrazole-5-carboxylic acid], in that order: 113% and 9.12.
In turn, `Cc1cc(-c2nc(CN3CCC(c4cccc5c4O[C@@](C)(c4ccc(Cl)cc4F)O5)CC3)n(C[C@@H]3CCO3)c2C)oc1C(=O)O` [Compound C-19, 5-(2-((4-((S)-2-(4-chloro-2-fluorophenyl)-2-methylbenzo[d][1,3]dioxol-4-yl)piperidin-1-yl)methyl)-5-methyl-1-(((S)-oxetan-2-yl)methyl)-1H-imidazol-4-yl)-3-methylfuran-2-carboxylic acid] had an Emax of 109% and a pEC50 of 9.42.
For `Cc1oc(-c2nc(CN3CCC(c4cccc5c4O[C@@](C)(c4ccc(Cl)cc4F)O5)CC3)n(C[C@@H]3CCO3)c2C)nc1C(=O)O` [Compound C-12, 2-(2-((4-((S)-2-(4-chloro-2-fluorophenyl)-2-methylbenzo[d][1,3]dioxol-4-yl)piperidin-1-yl)methyl)-5-methyl-1-(((S)-oxetan-2-yl)methyl)-1H-imidazol-4-yl)-5-methyloxazole-4-carboxylic acid], in that order: 114% and 9.24.
The corresponding values for `Cc1nc(CN2CCC(c3cccc4c3O[C@@](C)(c3ccc(Cl)cc3F)O4)CC2)n(C[C@@H]2CCO2)c1-c1nc(C(=O)O)c(C)o1` [Compound C-1, 2-(2-((4-((S)-2-(4-chloro-2-fluorophenyl)-2-methylbenzo[d][1,3]dioxol-4-yl)piperidin-1-yl)methyl)-4-methyl-1-(((S)-oxetan-2-yl)methyl)-1H-imidazol-5-yl)-5-methyloxazole-4-carboxylic acid] are 110% and 10.25.
With `CCc1nc(CN2CCC(c3cccc4c3O[C@@](C)(c3ccc(Cl)cc3F)O4)CC2)n(C[C@@H]2CCO2)c1-c1nc(C(=O)O)co1` [Compound C-5, 2-(2-((4-((S)-2-(4-chloro-2-fluorophenyl)-2-methylbenzo[d][1,3]dioxol-4-yl)piperidin-1-yl)methyl)-4-ethyl-1-(((S)-oxetan-2-yl)methyl)-1H-imidazol-5-yl)oxazole-4-carboxylic acid], the Emax came out at 123% and the pEC50 is 10.38.
For `Cc1nc(CN2CCC(c3cccc4c3O[C@@](C)(c3ccc(Cl)cc3F)O4)CC2)n(C[C@@H]2CCO2)c1-c1coc(C(=O)O)n1` [Compound C-20, 4-(2-((4-((S)-2-(4-chloro-2-fluorophenyl)-2-methylbenzo[d][1,3]dioxol-4-yl)piperidin-1-yl)methyl)-4-methyl-1-(((S)-oxetan-2-yl)methyl)-1H-imidazol-5-yl)oxazole-2-carboxylic acid], in that order: 112% and 9.62.
The corresponding values for `Cc1c(-c2nc(C(=O)O)co2)nc(CN2CCC(c3cccc4c3O[C@@](C)(c3ccc(Cl)cc3F)O4)CC2)n1C[C@@H]1CCO1` [Compound C-13, 2-(2-((4-((S)-2-(4-chloro-2-fluorophenyl)-2-methylbenzo[d][1,3]dioxol-4-yl)piperidin-1-yl)methyl)-5-methyl-1-(((S)-oxetan-2-yl)methyl)-1H-imidazol-4-yl)oxazole-4-carboxylic acid] are 102% and 9.42.
For `Cc1nc(CN2CCC(c3cccc4c3O[C@@](C)(c3ccc(Cl)cc3F)O4)CC2)n(C[C@@H]2CCO2)c1-c1cc(C(=O)O)n(C)n1` [Compound C-21, 3-(2-((4-((S)-2-(4-chloro-2-fluorophenyl)-2-methylbenzo[d][1,3]dioxol-4-yl)piperidin-1-yl)methyl)-4-methyl-1-(((S)-oxetan-2-yl)methyl)-1H-imidazol-5-yl)-1-methyl-1H-pyrazole-5-carboxylic acid], in that order: 117% and 9.08.
`Cc1nc(CN2CCC(c3cccc4c3O[C@@](C)(c3ccc(Cl)cc3F)O4)CC2)n(C[C@@H]2CCO2)c1-c1nc(C(=O)O)co1` [Compound C-9, 2-(2-((4-((S)-2-(4-chloro-2-fluorophenyl)-2-methylbenzo[d][1,3]dioxol-4-yl)piperidin-1-yl)methyl)-4-methyl-1-(((S)-oxetan-2-yl)methyl)-1H-imidazol-5-yl)oxazole-4-carboxylic acid] gave an Emax of 107% and a pEC50 of 9.99.
